# According to US4849409A, “Diels-alder adduct from streptazoline and naphthoquinones and its oxidation products, which have cytotoxic and antimicrobial activity and which act against protozoa” (Hoechst Aktiengesellschaft, priority 1986, dated 1989):
# Like-named read-outs stand apart in the source and are kept apart here.
# Columns and labels:
# L1210 leukemia cells = experiment: cells; assay type: cell-based, mouse; conditions: for IC50: Mus musculus
# Procedure: The cytotoxic action of the compounds can be established in various test systems such as, for example, in the soft agar colony test on mouse leukemia cells in vitro.
# Formation of colonies of L1210 leukemia cells in soft agar:
# In this test, substances having cytostatic activity bring about a reduction in the observed number of colonies compared with an untreated control. The details of the test procedure are as follows:
# 500 L1210 leukemia cells per plate are incubated with various concentrations of the compound of the formula II, obtained as in Example 3, as test substance at 37° C. for 1 hour. The cells are then washed twice with McCoy 5A medium and finally, after addition of 0.3% agar, poured into Petri dishes. Controls are incubated merely with fresh medium. In addition, in place of the incubation for 1 hour, various concentrations of the test substance are admixed to the upper agar layer, in order thus to acheive continuous exposure of the cells throughout the incubation time. After the agar has solidified, the plates are incubated in an incubator at 37° C. for 7 days (5% CO2, 95% relative humidity). The number of resultant colonies with a diameter >60μ is then counted. The results are expressed as the quotient of the number of colonies on treated agar plates and the number of colonies on the untreated control. The IC50 was obtained, as a measure of the activity of the test substance, from the dose-effect curve thus obtained. The comparison substance used in this test is the cytostatic adriamycin.
# [1] = in words; cited from earlier work
# leukemia cells = conditions: cited from earlier work
# [2] = L1210, 168 h, continuous exposure, substance in upper agar layer, 7 days at 37° C., read-out: Stem cell assay cont. IC50
# [3] = L1210, incubation for 1 hour at 37° C., then washed, 7 days in agar, read-out: Stem cell assay 1 h IC50
SMILES,IC50 (L1210 leukemia cells; [2]) [µg/mL],IC50 (L1210 leukemia cells; [3]) [µg/mL],cytotoxicity (assessment) (L1210 leukemia cells),antibiotic action [1],cytotoxic action (leukemia cells)
COc1cccc2c1C(=O)c1c(O)c3c(c(O)c1C2=O)C[C@@](O)(C(=O)CO)C[C@@H]3O[C@H]1C[C@H](N)[C@H](O)[C@H](C)O1 [Adriamycin],0.02,0.04,,,
CC=C1C2=CCCN3C(=O)OC(C1O)C23 (stereo not shown) [Streptazoline],10,10,no cytotoxicity worthy of note,only a very weak antibiotic,no cytotoxic action
CC1C2=C(C(=O)c3c(O)ccc(O)c3C2=O)[C@@H]2CCN3C(=O)O[C@@H]4[C@@H](O)C1=C2[C@@H]43 (stereo partly shown) [Test substance],0.04,0.26,cytotoxicity comparable to that of adriamycin,,
